Data: patent US20240116999A1, “CONFORMATIONALLY CONSTRAINED GLUCAGON ANALOGUES AND THEIR USE IN GLUCAGON-SINGLE CHAIN INSULIN FUSION PROTEINS” (THE TRUSTEES OF INDIANA UNIVERSITY, priority 2021, published 2024)
Each block holds one compound with its values, some of them ahead of it. Bridge positions count the residues as written; N and C are the ends. Square brackets hold non-standard residues; d marks the D form. Ends that are not written are not given here. Peptide text beside a SMILES is read from it. Orn = NCCC[C@H](N)C(=O)O

How the values were obtained:
[1] = test system: normal rats; assay: In vivo glucagon activity assay in normal rats; set-up: species or system rat; settings: for in vivo glucagon activity (rise in blood glucose): subcutaneous injection
Experimental: Glucagon Activity Assays. […] Glucagon or analogues were prepared (150 μg/ml in sterile 50 mM Tris-HCl buffer (pH 8.0)) and administered by subcutaneous injections (40.1 nmol/kg (˜50 ug/333 g rat)) in an injection volume of 200 μl/333 g rat. Rats were grouped according to their 2nd measured starting blood-glucose concentrations to ensure similar starting values at time=0. For in vivo dose-response studies a series of doses (40.1, 8.0, 1.6, 0.32, 0.064, and 0.013 nmol/kg) was tested in groups of 4-5 rats at each dose. Diluent volume was 200 μl/333 g rat. Experiments were repeated at least twice, and the results were averaged. The rise in blood glucose values were corrected by any changes observed in diluent-injected rats.

[2] = target: glucagon receptor (Homo sapiens, UniProt P47871); assay: Cell-based cyclic AMP (cAMP) activity assay; settings: for EC50: FIG. 8B, HEK-293 cells overexpressing glucagon receptor, read-out: EC50 (cAMP production)
Experimental: Cell-based Activity Assays. We generated a cAMP assay on HepG2 cells transiently transfected with the glucagon receptor (GCGR). The GCGR gene with C-terminal Flag tag was synthesized and ligated to a pcDNA 3.1 vector by Genscript. A plate of HepG2 cells was grown to 70% confluence and then transfected with 15 μg plasmid. […] Then, cAMP was measured following the instructions of the LANCETM Ultra cAMP Kit (PerkingElmer) using 3 technical replicates per point. This is a TR-FRET assay based on the competition between a europium-labeled cAMP and sample cAMP for binding to cAMP-specific labeled antibodies. In the LANCE cAMP assay, a higher sample cAMP (higher glucagon activity) translates to lower signal.

[3] = Thioflavin T (ThT) fibrillation assay; assay type: physicochemical; settings: for fibril formation: FIG. 5, relative to native glucagon; for formation of amyloid-like fibrils: FIG. 15, month-long assay, 100 μM, pH 7.4, 37° C.
Experimental: Fibrillation Assays. We employed an automated plate-based fluorescent device to monitor the time course of peptide fibrillation using a Thioflavin T (ThT) assay. This assay is based on the THT fluorescence emission at 480 nm upon binding to mature fibrils when excited at 440 nm. The assay was performed by preparing stock solutions of the fusion protein and the individual peptides in either NaCl 0.9% (pH 2.5) or PBS (pH 7.4). Our experience has identified 100-μM final concentration as optimal fibrillation conditions for glucagon analogues. Stock solutions were diluted with NaCl 0.9% or 1X PBS buffer, pH adjusted (with 1N HCl or 1N NaOH) mixed with Thioflavin-T (THT) at a final concentration of 16 μM, centrifuged, and 250 μl of the sample were placed on a 96-well plate with 4-10 technical replicates. Measurements were done every 15 minutes and the sample agitated at 1096 cpm at 37° C. on a Synergy H1 microplate reader (BioTek, Winooski, VT). The lag time, defined as the time-point at which fibrillation starts its exponential phase, was considered as the point at which fluorescence was 3 times the background signal.

[4] = test system: normal rats; assay: Stability assay: samples incubated at 37° C., then activity tested; assay type: in vivo, rat; settings: FIG. 11; 150 μg/ml in 50 mM Tris buffer pH 8.0, 37° C., mild agitation and rotation; tested t=0, day 3, day 7
Experimental: Glucagon Activity Assays. The glycemic activities of glucagon analogues were tested (Ismail-Beigi ,Case Western Reserve University) in normal male rats (250-350 g) that were fasted for 4 h before the injection and not fed during the course of the experiment (4-5 rats per dose of glucagon in parallel). Glucagon or analogues were prepared (150 μg/ml in sterile 50 mM Tris-HCl buffer (pH 8.0)) and administered by subcutaneous injections (40.1 nmol/kg (˜50 ug/333 g rat)) in an injection volume of 200 μl/333 g rat. Rats were grouped according to their 2nd measured starting blood-glucose concentrations to ensure similar starting values at time=0. For in vivo dose-response studies a series of doses (40.1, 8.0, 1.6, 0.32, 0.064, and 0.013 nmol/kg) was tested in groups of 4-5 rats at each dose. Diluent volume was 200 μl/333 g rat. Experiments were repeated at least twice, and the results were averaged. The rise in blood glucose values were corrected by any changes observed in diluent-injected rats.
To test for stability of glucagon and its analogues, samples (150 μg/ml in 50 mM Tris-HCl buffer (pH 8.0)) were incubated at 37° C. with mild agitation and rotation. Samples were tested as described above after varying periods of incubation.

[5] = test system: STZ (diabetic) rats; assay: In vivo assay in STZ (diabetic) rats, subcutaneous injection; set-up: species or system rat
From the text: FIG. 17 presents an in vivo assay done in STZ rats.
FIG. 18 presents another in vivo assay done in STZ rats. The four fusion proteins used in FIG. 17 were subcutaneously injected at doses of 23.8 nmol/kg per rat. […] In this study both fusion proteins carrying an active SCI analogue had similar activities.

[6] = pH 2.5, 37° C., constant agitation

Sequence of glucagon receptor (P47871 26-477, species assumed): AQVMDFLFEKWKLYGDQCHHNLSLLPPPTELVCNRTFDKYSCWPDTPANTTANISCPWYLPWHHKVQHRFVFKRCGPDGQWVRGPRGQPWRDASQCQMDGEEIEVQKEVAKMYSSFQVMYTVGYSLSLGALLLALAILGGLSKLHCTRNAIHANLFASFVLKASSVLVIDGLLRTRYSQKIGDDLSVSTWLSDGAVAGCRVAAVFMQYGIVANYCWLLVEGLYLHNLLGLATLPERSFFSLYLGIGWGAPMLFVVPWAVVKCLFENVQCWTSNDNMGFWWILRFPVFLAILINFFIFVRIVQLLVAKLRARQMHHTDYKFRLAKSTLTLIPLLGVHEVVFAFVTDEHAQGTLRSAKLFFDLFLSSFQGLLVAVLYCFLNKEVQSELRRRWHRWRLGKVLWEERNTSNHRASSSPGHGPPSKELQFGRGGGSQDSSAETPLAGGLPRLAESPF

potency (cAMP assay) ([2]; FIG. 8, relative to the lactam analogue): markedly diminished potency
Compound: HSQGTFTSDYSOKLDSEOAQDFVQWLMNTEEK (HSQGTFTSDYS[Orn]KLDSE[Orn]AQDFVQWLMNTEEK; lactam 13-17) [[Lys13, Glu17]-glucagon-EEK linear, includes the [Lys13-Glu17] substitutions but not the side-chain lactam bond]
in vivo glucagon activity (rise in blood glucose) ([1]; FIGS. 9, 10, 13): inactive

Compound: HSQGTFTSDYSKYLDSRRAQDFVQWLMNTO [SEQ ID NO: 5]
fibril formation [3, 6]: delay fibril formation
fibril formation ([3]; pH 7.4, 37° C., constant agitation): delay fibril formation

Compound: HSQGTFTSDYSKYLDSRRAQDFVQWLMNTR (glucagon peptide analog) [SEQ ID NO: 2]
fibril formation [3, 6]: delay fibril formation

biological activity after incubation (stability) [4]: maintained full biological activity
EC50 [2]: 126 nM
time without fibril formation ([3]; FIG. 7, phosphate-buffered saline pH 7.4, 100 μM, 37° C., constant agitation): > 11 days
Compound: CSCC[C@H](NC(=O)[C@H](CC(C)C)NC(=O)[C@H](Cc1c[nH]c2ccccc12)NC(=O)[C@H](CCC(N)=O)NC(=O)[C@@H](NC(=O)[C@H](Cc1ccccc1)NC(=O)[C@H](CC(=O)O)NC(=O)[C@H](CCC(N)=O)NC(=O)[C@H](C)NC(=O)[C@H](CCCN)NC(=O)[C@@H]1CCC(=O)NCCCC[C@H](NC(=O)[C@H](CCCN)NC(=O)[C@H](CO)NC(=O)[C@H](Cc2ccc(O)cc2)NC(=O)[C@H](CC(=O)O)NC(=O)[C@H](CO)NC(=O)[C@@H](NC(=O)[C@H](Cc2ccccc2)NC(=O)[C@@H](NC(=O)CNC(=O)[C@H](CCC(N)=O)NC(=O)[C@H](CO)NC(=O)[C@@H](N)Cc2c[nH]cn2)[C@@H](C)O)[C@@H](C)O)C(=O)N[C@@H](CC(C)C)C(=O)N[C@@H](CC(=O)O)C(=O)N[C@@H](CO)C(=O)N1)C(C)C)C(=O)N[C@@H](CC(N)=O)C(=O)N[C@H](C(=O)N[C@@H](CCC(=O)O)C(=O)N[C@@H](CCC(=O)O)C(=O)N[C@@H](CCCCN)C(=O)O)[C@@H](C)O [SEQ ID NO: 23, HSQGTFTSDYSOKLDSEOAQDFVQWLMNTEEK] (H-HSQGTFTSDYS[Orn]KLDSE[Orn]AQDFVQWLMNTEEK-OH; lactam 13-17; N-terminus and C-terminus assumed)
rise in blood glucose levels ([1]; FIG. 12, 8 nmol/kg rat dose): minor raise
rise in blood glucose levels, dose-response ([1]; FIG. 12, doses 0.32, 1.6, 8 and 40 nmol/kg rat): only at the maximum dose
in vivo glucagon activity (rise in blood glucose) ([1]; FIGS. 9, 10, 13): maximal activity
in vivo glucagon activity (rise in blood glucose) ([1]; FIGS. 9, 10, 13, listed as [Lys13, Glu17]-glucagon-EEK lactam): active
formation of amyloid-like fibrils [3]: did not form amyloid-like fibrils within the duration of the experiment

Compound: HSQGTFTSDYSKKLDSERAQDFVQWLMNT (lactam 13-17) [SEQ ID NO: 10, a lactam bridge connects the side chains of variant residues K13 and E17]
in vivo glucagon activity (rise in blood glucose) ([1]; FIGS. 9, 10, 13, listed as [Lys13, Glu17]-glucagon lactam): active

Compound: HSQGTFTSKYSOELDSOOAQDFVQWLMNTEEK (HSQGTFTSKYS[Orn]ELDS[Orn][Orn]AQDFVQWLMNTEEK; lactam 9-13) [SEQ ID NO: 24]
in vivo glucagon activity (rise in blood glucose) ([1]; FIGS. 9, 10, 13): inactive

Compound: HSQGTFTSKYSOELDSOOAQDFVQWLMNTEEKFVNQHLCGSHLVEALYLVCGEOGFFYTPETEEGPOOGIVEQCCQSICSLEQLENYCN [SEQ ID NO: 75]
activity at 23.8 nmol/kg relative to the 12-nmol/kg rat doses ([5]; FIG. 18 vs FIG. 17, STZ rats): increased activity at the increased dose

EC50 [2]: 93.5 nM
formation of amyloid-like fibrils [3]: formed amyloid-like fibrils
Compound: CSCC[C@H](NC(=O)[C@H](CC(C)C)NC(=O)[C@H](Cc1c[nH]c2ccccc12)NC(=O)[C@H](CCC(N)=O)NC(=O)[C@@H](NC(=O)[C@H](Cc1ccccc1)NC(=O)[C@H](CC(=O)O)NC(=O)[C@H](CCC(N)=O)NC(=O)[C@H](C)NC(=O)[C@H](CCCN)NC(=O)[C@H](CCCN)NC(=O)[C@H](CO)NC(=O)[C@H](CC(=O)O)NC(=O)[C@H](CC(C)C)NC(=O)[C@H](Cc1ccc(O)cc1)NC(=O)[C@H](CCCN)NC(=O)[C@H](CO)NC(=O)[C@H](Cc1ccc(O)cc1)NC(=O)[C@H](CC(=O)O)NC(=O)[C@H](CO)NC(=O)[C@@H](NC(=O)[C@H](Cc1ccccc1)NC(=O)[C@@H](NC(=O)CNC(=O)[C@H](CCC(N)=O)NC(=O)[C@H](CO)NC(=O)[C@@H](N)Cc1c[nH]cn1)[C@@H](C)O)[C@@H](C)O)C(C)C)C(=O)N[C@@H](CC(N)=O)C(=O)N[C@H](C(=O)N[C@@H](CCC(=O)O)C(=O)N[C@@H](CCC(=O)O)C(=O)N[C@@H](CCCCN)C(=O)O)[C@@H](C)O [SEQ ID NO: 21, HSQGTFTSDYSOYLDSOOAQDFVQWLMNTEEK] (H-HSQGTFTSDYS[Orn]YLDS[Orn][Orn]AQDFVQWLMNTEEK-OH; N-terminus and C-terminus assumed)

Compound: human insulin [reference compound]
formation of amyloid-like fibrils [3]: formed amyloid-like fibrils

Compound: insulin Lispro [reference compound]
formation of amyloid-like fibrils [3]: formed amyloid-like fibrils

Compound: HSQGTFTSDYSOYLDSOOAQDFV[D-Cys]WLCNTEEK [[D-Cys24-Cys27] L]
in vivo glucagon activity (rise in blood glucose) ([1]; FIGS. 9, 10, 13): only analogue that is active, other than wild-type glucagon, was the [Lys13, Glu17]-glucagon lactam

Compound: HSQGTFTSDYSKKLDSERAQDFVQWLMNT (lactam 13-17) [[Lys13, Glu17]-Glucagon linear, linear [Lys13, Glu17] analogue without Orn substitutions or C-terminal EEK extension]
in vivo glucagon activity (rise in blood glucose) ([1]; FIGS. 9, 10, 13): only analogue that is active, other than wild-type glucagon, was the [Lys13, Glu17]-glucagon lactam

biological activity after incubation (stability) [4]: maintained full biological activity
Compound: CC(C)C[C@H](NC(=O)[C@H](Cc1c[nH]c2ccccc12)NC(=O)[C@H](CCCCN)NC(=O)[C@@H](NC(=O)[C@H](Cc1ccccc1)NC(=O)[C@H](CCC(=O)O)NC(=O)[C@H](CCC(=O)O)NC(=O)[C@H](C)NC(=O)[C@H](CCCNC(=N)N)NC(=O)[C@H](C)NC(=O)C(C)(C)NC(=O)[C@H](CC(=O)O)NC(=O)[C@H](CC(C)C)NC(=O)[C@H](Cc1ccc(O)cc1)NC(=O)[C@H](CCCCN)NC(=O)[C@H](CO)NC(=O)[C@H](Cc1ccc(O)cc1)NC(=O)[C@H](CC(=O)O)NC(=O)[C@H](CO)NC(=O)[C@@H](NC(=O)[C@H](Cc1ccccc1)NC(=O)[C@@H](NC(=O)CNC(=O)[C@H](CCC(N)=O)NC(=O)[C@H](CO)NC(=O)[C@@H](N)Cc1c[nH]cn1)[C@@H](C)O)[C@@H](C)O)C(C)C)C(=O)N[C@@H](CCC(=O)O)C(=O)N[C@@H](CO)C(=O)N[C@H](C(=O)O)[C@@H](C)O [dasiglucagon, reference compound]

Compound: FVNQHLCGSHLVEALYLVCGEOGFFYTPETEEGPOOGIVEQCCQSICSLEQLENYCN (FVNQHLCGSHLVEALYLVCGEXGFFYTPETEEGPXXGIVEQCCQSICSLEQLENYCN; ornithine residues; insulin peptide analog; (22)..(22) Xaa at position 22 is Orn.; (35)..(35) Xaa at position 35 is Orn.; (36)..(36) Xaa at position 36 is Orn.) [SEQ ID NO: 71, 57-residue single-chain insulin (SCI) analogue lacking internal tryptic sites]
biological activity relative to insulin Lispro (KP-insulin) ([5]; FIG. 14, STZ (diabetic) rats, 30-μg dose of SCI vs 15-μg dose of KP-insulin): slightly higher activity than a 15-μg dose of KP-insulin
formation of amyloid-like fibrils [3]: did not form amyloid-like fibrils within the duration of the experiment

Compound: HSQGTFTSDYSKYLDSRRAQDFVQWLMNTK [SEQ ID NO: 3]
fibril formation [3, 6]: delay fibril formation
